# “Also recorded” adds a separate entry of the source. Like-named read-outs stand apart in the source and are kept apart here.
# Key:
# [1] = molecular target: T1, wild-type GCase (Homo sapiens (Human), UniProt P04062); assay: GCase enzyme activity assay (4MU-β-Glc, no taurocholate); format: biochemical
# Experimental: In previous studies, high concentrations of taurocholate (4-10 mM) were used to improve the signal in GCase enzyme activity assays^16,27,28. […] Here we describe our modifications of the substituents on the quinazoline ring.
# 4-Methylumbelliferyl β-D-glucopyranoside (4MU-β-Glc), 4-methylumbelliferyl α-D-glucopyranoside,4-methylumbelliferyl α-D-galactopyranoside, and buffer components were purchased from Sigma-Aldrich (St. Louis, Mo.). The recombinant wild-type GCase enzyme velaglucerase alfa (Vpriv®, Shire Human Genetic Therapies, Inc.), acid α-glucosidase enzyme alglucosidase alfa (Lumizyme®, Genzyme Corporation), α-galactosidase A enzyme agalsidase beta (Fabrazyme®, Genzyme Corporation) were used in activity assays. […] A solution of 1 M sodium hydroxide and 1 M glycine (pH 10) was used as the stop solution for all three enzyme activity assays.
# The compounds in DMSO solution (0.5 μL/well) were transferred to a black 96-well plate (the final titration started from 100 μM, a 12 or 24-point 2-fold dilution series). […] After 5 min of incubation at room temperature, the enzyme reaction was initiated by the addition of blue substrate (4MU-13-Glc) (33 μL/well). The final concentration of the blue substrate was 1.5 mM. The blue substrate reaction was terminated by the addition of 33 μL/well stop solution (1 M NaOH and 1 M glycine mixture, pH 10) after 30 min of incubation at 37° C. […] The selected compounds were further assayed under pH 5.0 and pH 7.0 to evaluate their selectivity under various pH conditions.
# [2] = molecular target: T1, wild-type GCase; assay: Fluorescence thermal shift analysis; format: binding; settings: pH 5.0, in words
# Description: Compounds shown to act as pharmacological chaperones for GCase (or other lysosomal enzymes) also stabilize the enzyme against thermal denaturation. A fluorescent thermal shift assay was developed to evaluate the binding affinity of ligands with protein^30. […] The maximum thermal shift of these compounds corresponded to their inhibitory activity at pH 5.0.
# A robotic pipeline in the High Throughput Analysis Laboratory (HTAL) was used for protein ligand screening by fluorescence thermal shift (FTS) analysis. The pipeline used a Mosquito robot (TTP Labtech) for protein dispensing and an Echo 550 (Labcyte) to add compounds. Thermal scanning coupled with fluorescence detection was performed on a real-time PCR machine CFX384 (Bio-Rad Laboratories). The assay was run in 384-well PCR plates, using 10 μL citric acid/K2HPO4 buffer (50 mM citric acid, 150 mM K2HPO4, pH 5.0) per well. The assay concentration for protein was 1 μM and that for Sypro Orange (Invitrogen) was 5×. Protein was premixed with Sypro Orange and dispensed to a plate first, and compounds were added. Final concentrations of compounds ranged from 0.5 to 200 μM. Then the plate was sealed with an optical seal, shaken, and centrifuged. The thermal scan was from 10 to 95° C. with a temperature ramp rate of 1.5° C./min. The fluorescence was recorded every 10 sec. Data analysis and report generation were performed using the in-house software excelFTS.
# [3] = molecular target: acid α-glucosidase (GAA) (Homo sapiens (Human), UniProt P10253); assay: Enzyme selectivity assay, acid α-glucosidase; format: biochemical; settings: up to 100 μM
# Description: (§1) Louis, Mo.). The recombinant wild-type GCase enzyme velaglucerase alfa ([…] Human Genetic Therapies, Inc.), acid α-glucosidase enzyme alglucosidase alfa (Lumizyme®, Genzyme Corporation), α-galactosidase A enzyme agalsidase beta (Fabrazyme®, Genzyme Corporation) were used in activity assays. […] The acid α-glucosidase and α-galactosidase A enzyme activity assay methods were similar to the GCase enzyme activity assay above with slight modifications.
# [4] = molecular target: α-galactosidase A (GLA) (Homo sapiens (Human), UniProt P06280); assay: Enzyme selectivity assay, α-galactosidase A; format: biochemical; settings: up to 100 μM
# α-galactosidase A (GLA), sequence (P06280 32-429): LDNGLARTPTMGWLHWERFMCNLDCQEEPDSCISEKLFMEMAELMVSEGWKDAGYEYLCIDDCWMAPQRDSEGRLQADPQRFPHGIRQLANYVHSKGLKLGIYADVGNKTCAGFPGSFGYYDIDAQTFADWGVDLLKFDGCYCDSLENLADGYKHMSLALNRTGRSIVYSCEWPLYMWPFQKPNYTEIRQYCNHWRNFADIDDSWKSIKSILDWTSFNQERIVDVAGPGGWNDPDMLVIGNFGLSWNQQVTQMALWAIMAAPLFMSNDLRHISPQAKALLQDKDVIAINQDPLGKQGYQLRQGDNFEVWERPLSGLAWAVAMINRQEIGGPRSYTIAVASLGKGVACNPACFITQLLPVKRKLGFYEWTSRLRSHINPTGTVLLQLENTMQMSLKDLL
# Description: as §1
# [5] = molecular target: N370S mutant GCase in patient fibroblasts (Homo sapiens (Human), UniProt P04062, N370S); assay: GCase protein level in N370S fibroblasts by Western blot; format: cell-based; settings: 3 days treatment
# N370S mutant GCase in patient fibroblasts, sequence (P04062 40-536 N409S): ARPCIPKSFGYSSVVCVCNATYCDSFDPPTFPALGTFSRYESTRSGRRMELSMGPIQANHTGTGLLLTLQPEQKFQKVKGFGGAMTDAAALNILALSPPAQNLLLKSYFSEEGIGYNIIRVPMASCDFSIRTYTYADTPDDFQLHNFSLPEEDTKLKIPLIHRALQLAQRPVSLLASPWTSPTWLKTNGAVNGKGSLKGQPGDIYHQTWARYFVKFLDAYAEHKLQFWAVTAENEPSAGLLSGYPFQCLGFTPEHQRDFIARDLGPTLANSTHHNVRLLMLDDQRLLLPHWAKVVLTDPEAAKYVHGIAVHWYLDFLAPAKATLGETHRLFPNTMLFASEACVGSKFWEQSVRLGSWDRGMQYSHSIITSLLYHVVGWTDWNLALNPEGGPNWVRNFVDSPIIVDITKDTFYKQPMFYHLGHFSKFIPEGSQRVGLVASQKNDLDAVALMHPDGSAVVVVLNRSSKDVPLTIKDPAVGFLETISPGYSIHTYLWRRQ
# Experimental: The N370S fibroblast cell line was obtained from Coriell, GM00372, cultured in DMEM medium (Life Tech) including 1% v/v L-glutamine 200 mM (Life Tech), 1% v/v pen strep (Life Tech), 10% FBS (Life Tech) at 37° C. and 5% CO2 and treated with different compounds at 0.2 μM and 2 μM. After a 3-day treatment, cells were washed with inhibitor free media 3 times and fed with inhibitor free media for 1 day, followed by 1% Triton X-100 lysis buffer to lyse cells. Protein concentrations were measured with a Bradford kit (Thermo), and the GCase activity was determined at pH 5.5.
# Proteins were denatured in 20% SDS sample buffer at 100° C. for 10 min; 10% Bis-Tris gel (Life Tech) was used for gels; Trans-Blot Turbo PVDF kit (Bio-Rad) was used for membrane transfer, and Chemidoc MP system (Bio-Rad) was used to analyze the blots.
# [6] = Table 3, pH 5.9, mean ± SD, read-out: IC50
# [7] = Table 4, pH 5.9, mean ± SD, read-out: IC50
# [8] = Table 1, pH 5.9, mean ± SD, read-out: IC50
# [9] = Table 2, pH 5.9, mean ± SD, read-out: IC50
# [10] = Table 5, pH 5.9, mean ± SD, read-out: IC50
# [11] = pH 5.0, mean ± SD, read-out: IC50 pH 5.0
# [12] = pH 7.0, mean ± SD, read-out: IC50 pH 7.0
# T1 sequence (P04062 40-536): as the sequence (P04062 40-536 N409S) above, with S370N counted along it
smiles,measurement,setting,value
c1ccc(CCCNc2nc(-c3cccnc3)nc3ccccc23)cc1 [Compound 8d],IC50,[1]; [6],1530 ± 220 nM
c1cncc(-c2nc(NC3CCc4ccccc43)c3ccccc3n2)c1 (stereo not shown) [Compound 9e],GCase inhibitory activity in words,[1],low micromolar range
same,IC50,[1]; [7],821 ± 73 nM
"CC1CCC(Nc2nc(-c3cccnc3)nc3ccccc23)CC1 (single isomer, unassigned) [Compound 6c]",IC50,[1]; [8],20 ± 2 nM
same,IC50,[1]; read-out: IC50,20 nM
c1ccc(Nc2nc(-c3cccnc3)nc3ccccc23)cc1 [Compound 8a],GCase inhibitory activity in words,[1],lost activity
same,IC50,"[1]; Table 3, pH 5.9, mean ± SD",inactive
same,stabilization of GCase (melting point change),[2],did not change the melting points significantly
CN1CCC(Nc2nc(-c3cccnc3)nc3ccccc23)CC1 [Compound 6i],IC50,"[1]; Table 1, pH 5.9, mean ± SD",Inactive
c1cncc(-c2nc(NC3CCC3)c3ccccc3n2)c1 [Compound 7d],IC50,[1]; [9],2840 ± 340 nM
"c1ccc2c(c1)CC(Nc1nc(-c3ccncc3)nc3ccccc13)C2 [Compound 11e, N-(2,3-dihydro-1H-inden-2-yl)-2-(pyridin-4-yl)quinazolin-4-amine]",IC50,[1]; [10],168 ± 18 nM
c1cncc(-c2nc(NC3CCCCCCC3)c3ccccc3n2)c1 [Compound 7a],IC50,[1]; [9],27 ± 2 nM
c1ccc(CCNc2nc(-c3cccnc3)nc3ccccc23)nc1 [Compound 8f],IC50,[1]; [6],1400 ± 120 nM
"c1csc(-c2nc(NC3Cc4ccccc4C3)c3ccccc3n2)c1 [Compound 11f, N-(2,3-dihydro-1H-inden-2-yl)-2-(thiophen-2-yl)quinazolin-4-amine]",IC50,[1]; [11],13.9 ± 1.9 nM
same,decrease of inhibitory activity at pH 5.0 compared to pH 5.9,[1]; pH 5.0 vs pH 5.9,only dropped slightly
same,IC50,"[1]; pH 5.9, mean ± SD, read-out: IC50 pH 5.9",8.2 ± 1 nM
same,IC50,[1]; [12],12.9 ± 2 nM
same,stabilization of GCase (melting point change),[2],stabilize wild-type GCase in a dose-dependent manner; also recorded: increased the GCase melting point in a dose-dependent manner
same,activity of acid α-glucosidase on compound treatment,[3],not significantly changed
same,activity of α-galactosidase A on compound treatment,[4],not significantly changed
same,concentration of GCase protein,[5],significantly increased the concentration of GCase
CC(C)N1CCC(Nc2nc(-c3cccnc3)nc3ccccc23)CC1 [Compound 6j],IC50,[1]; [8],33200 ± 9710 nM
c1cncc(-c2nc(NC3CC4CCC3C4)c3ccccc3n2)c1 (stereo not shown) [Compound 7g],IC50,[1]; [9],282 ± 43 nM
c1cncc(-c2nc(NCCC3CCCCC3)c3ccccc3n2)c1 [Compound 7i],IC50,[1]; [9],857 ± 33 nM
c1ccc(CCCCNc2nc(-c3cccnc3)nc3ccccc23)cc1 [Compound 8e],IC50,[1]; [6],1280 ± 130 nM
"Cc1ccncc1-c1nc(NC2Cc3ccccc3C2)c2ccccc2n1 [Compound 11a, N-(2,3-dihydro-1H-inden-2-yl)-2-(4-methylpyridin-3-yl)quinazolin-4-amine]",IC50,[1]; [10],122 ± 12 nM
"Cc1ccc(-c2nc(NC3Cc4ccccc4C3)c3ccccc3n2)cn1 [Compound 11c, N-(2,3-dihydro-1H-inden-2-yl)-2-(6-methylpyridin-3-yl)quinazolin-4-amine]",IC50,[1]; [10],29.4 ± 3.6 nM
c1cncc(-c2nc(NC3CCCOC3)c3ccccc3n2)c1 (stereo not shown) [Compound 6h],IC50,[1]; [8],891 ± 23 nM
COC1CCC(Nc2nc(-c3cccnc3)nc3ccccc23)CC1 (stereo not shown) [Compound 6d],IC50,[1]; [8],251 ± 18 nM
c1ccc(CNc2nc(-c3cccnc3)nc3ccccc23)cc1 [Compound 8b],IC50,[1]; [6],5770 ± 820 nM
CCC1CCC(Nc2nc(-c3cccnc3)nc3ccccc23)CC1 (stereo not shown) [Compound 6b],IC50,[1]; [8],126 ± 7 nM
FC1(F)CCC(Nc2nc(-c3cccnc3)nc3ccccc23)CC1 [Compound 6f],IC50,[1]; [8],234 ± 17 nM
"Cc1cncc(-c2nc(NC3Cc4ccccc4C3)c3ccccc3n2)c1 [Compound 11b, N-(2,3-dihydro-1H-inden-2-yl)-2-(5-methylpyridin-3-yl)quinazolin-4-amine]",IC50,[1]; [10],12.5 ± 1.7 nM
c1cncc(-c2nc(NC3CCCc4ccccc43)c3ccccc3n2)c1 (stereo not shown) [Compound 9d],GCase inhibitory activity in words,[1],low micromolar range
same,IC50,[1]; [7],872 ± 71 nM
c1cncc(-c2nc(NC3CCCCCC3)c3ccccc3n2)c1 [Compound 7b],IC50,[1]; [9],42 ± 3 nM
c1cncc(-c2nc(NC3Cc4ccccc4C3)c3ccccc3n2)c1 [Compound 9c],IC50,[1]; [7],8.3 ± 1 nM
same,IC50,[1]; [11],25.9 ± 3.9 nM
same,IC50,[1]; [12],12.7 ± 1.4 nM
c1cncc(CCNc2nc(-c3cccnc3)nc3ccccc23)c1 [Compound 8g],IC50,[1]; [6],4290 ± 570 nM
c1ccc(CN2CCC(Nc3nc(-c4cccnc4)nc4ccccc34)CC2)cc1 [Compound 6k],IC50,[1]; [8],36100 ± 8720 nM
"c1cncc(-c2nc(NC3CCc4ccccc4C3)c3ccccc3n2)c1 (single isomer, unassigned) [Compound 9a]",decrease of inhibitory activity at pH 5.0 compared to pH 5.9,[1],3 fold
same,stabilization of GCase (melting point change),[2],stabilize wild-type GCase in a dose-dependent manner; also recorded: increased the GCase melting point in a dose-dependent manner
same,activity of acid α-glucosidase on compound treatment,[3],not significantly changed
same,activity of α-galactosidase A on compound treatment,[4],not significantly changed
c1ccc(CCNc2nc(-c3cccnc3)nc3ccccc23)cc1 [Compound 8c],IC50,[1]; [6],97 ± 9 nM
CC1(C)CCC(Nc2nc(-c3cccnc3)nc3ccccc23)CC1 [Compound 6e],IC50,[1]; [8],431 ± 42 nM
c1cncc(-c2nc(NCC3CCCCC3)c3ccccc3n2)c1 [Compound 7h],IC50,[1]; [9],405 ± 40 nM
c1cncc(-c2nc(NC3CC3)c3ccccc3n2)c1 [Compound 7e],IC50,[1]; [9],28100 ± 3210 nM
CN(C)C1CCC(Nc2nc(-c3cccnc3)nc3ccccc23)CC1 (stereo not shown) [Compound 6g],IC50,"[1]; Table 1, pH 5.9, mean ± SD",Inactive
c1cncc(-c2nc(NC34CC5CC(CC(C5)C3)C4)c3ccccc3n2)c1 [Compound 7f],IC50,[1]; [9],926 ± 80 nM
c1cncc(-c2nc(N[C@@H]3CCc4ccccc4C3)c3ccccc3n2)c1 [Compound 9b],decrease of inhibitory activity at pH 5.0 compared to pH 5.9,[1],3 fold
same,stabilization of GCase (melting point change),[2],stabilize wild-type GCase in a dose-dependent manner; also recorded: increased the GCase melting point in a dose-dependent manner
same,activity of acid α-glucosidase on compound treatment,[3],not significantly changed
same,activity of α-galactosidase A on compound treatment,[4],not significantly changed
c1cncc(-c2nc(NC3CCCC3)c3ccccc3n2)c1 [Compound 7c],IC50,[1]; [9],720 ± 50 nM
"c1coc(-c2nc(NC3Cc4ccccc4C3)c3ccccc3n2)c1 [Compound 11h, N-(2,3-dihydro-1H-inden-2-yl)-2-(furan-2-yl)quinazolin-4-amine]",IC50,[1]; [10],21.1 ± 2.4 nM
"CC1CCC(Nc2nc(-c3cccnc3)nc3ccccc23)CC1 (single isomer, unassigned) [Compound 6a]",IC50,[1]; [8],56 ± 5 nM
